Measured values: PubChem BioAssay (NCI)
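Following 48 hours of exposure in 96-well plates, responses at five concentrations were used to interpolate endpoints linearly. GI50 marks 50% less growth. TGI: total growth inhibition.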

Columns and labels:
Assay in all cases: NCI tumour cell line growth inhibition, 48 h
HS 578T breast = system: HS 578T breast
SNB-75 CNS = system: SNB-75 CNS
CAKI-1 renal = system: CAKI-1 renal
PC-3 prostate = system: PC-3 prostate
A498 renal = system: A498 renal
K-562 leukemia = system: K-562 leukemia
SK-OV-3 ovarian = system: SK-OV-3 ovarian
SNB-19 CNS = system: SNB-19 CNS
NCI-H226 lung = system: NCI-H226 lung
NCI/ADR-RES ovarian = system: NCI/ADR-RES ovarian
DU-145 prostate = system: DU-145 prostate
A549 NSCLC = system: A549 NSCLC
UACC-257 melanoma = system: UACC-257 melanoma
SK-MEL-28 melanoma = system: SK-MEL-28 melanoma
RPMI-8226 leukemia = system: RPMI-8226 leukemia
MDA-MB-435 = system: MDA-MB-435
U251 CNS = system: U251 CNS
SK-MEL-2 melanoma = system: SK-MEL-2 melanoma
SF-295 CNS = system: SF-295 CNS
CCRF-CEM leukemia = system: CCRF-CEM leukemia
RXF 393 renal = system: RXF 393 renal
BT-549 breast = system: BT-549 breast
SF-268 CNS = system: SF-268 CNS
SF-539 CNS = system: SF-539 CNS
SN12C renal = system: SN12C renal
MOLT-4 leukemia = system: MOLT-4 leukemia
MDA-MB-231 breast = system: MDA-MB-231 breast
HCC-2998 colon = system: HCC-2998 colon
SK-MEL-5 melanoma = system: SK-MEL-5 melanoma
TK-10 renal = system: TK-10 renal
HCT-116 colon = system: HCT-116 colon
HCT-15 colon = system: HCT-15 colon
LOX IMVI melanoma = system: LOX IMVI melanoma
M14 melanoma = system: M14 melanoma
HL-60(TB) leukemia = system: HL-60(TB) leukemia
NCI-H460 lung = system: NCI-H460 lung
ACHN renal = system: ACHN renal
KM12 colon = system: KM12 colon
T-47D breast = system: T-47D breast
UO-31 renal = system: UO-31 renal
OVCAR-5 ovarian = system: OVCAR-5 ovarian
EKVX NSCLC = system: EKVX NSCLC
HOP-92 NSCLC = system: HOP-92 NSCLC
MCF7 breast = system: MCF7 breast
NCI-H23 lung = system: NCI-H23 lung
786-0 renal = system: 786-0 renal
OVCAR-4 ovarian = system: OVCAR-4 ovarian
SW-620 colon = system: SW-620 colon
COLO 205 colon = system: COLO 205 colon
MALME-3M melanoma = system: MALME-3M melanoma
HT29 colon = system: HT29 colon
NCI-H522 lung = system: NCI-H522 lung
UACC-62 melanoma = system: UACC-62 melanoma
SR leukemia = system: SR leukemia
HOP-62 NSCLC = system: HOP-62 NSCLC
OVCAR-8 ovarian = system: OVCAR-8 ovarian
IGROV1 ovarian = system: IGROV1 ovarian

## CN1CCN(Cc2ccc(NC(=O)c3cncc(C#Cc4cnc5ccc(OCC(C)(C)O)nn45)c3)cc2C(F)(F)F)CC1
HS 578T breast
  GI50: 0.156 µM
  TGI: 0.578 µM
SNB-75 CNS
  GI50: 0.21 µM
  TGI: 0.572 µM
CAKI-1 renal
  GI50: 0.183 µM
  TGI: 0.528 µM
PC-3 prostate
  GI50: 0.332 µM
  TGI: 1.75 µM
A498 renal
  GI50: 0.199 µM
  TGI: 0.395 µM
K-562 leukemia
  TGI: 1.85 µM
SK-OV-3 ovarian
  GI50: 0.378 µM
  TGI: 1.16 µM
SNB-19 CNS
  GI50: 0.356 µM
  TGI: 1.36 µM
NCI-H226 lung
  GI50: 0.148 µM
  TGI: 1.34 µM
NCI/ADR-RES ovarian
  GI50: 1.64 µM
  TGI: 4.68 µM
DU-145 prostate
  GI50: 0.26 µM
  TGI: 0.786 µM
A549 NSCLC
  GI50: 0.317 µM
  TGI: 1.09 µM
UACC-257 melanoma
  GI50: 0.318 µM
  TGI: 1.2 µM
SK-MEL-28 melanoma
  GI50: 0.237 µM
  TGI: 0.726 µM
RPMI-8226 leukemia
  GI50: 0.344 µM
  TGI: 1.38 µM
MDA-MB-435
  GI50: 0.207 µM
  TGI: 0.698 µM
U251 CNS
  GI50: 0.329 µM
  TGI: 1.12 µM
SK-MEL-2 melanoma
  GI50: 0.177 µM
  TGI: 0.349 µM
SF-295 CNS
  GI50: 0.726 µM
  TGI: 2.06 µM
CCRF-CEM leukemia
  GI50: 0.336 µM
  TGI: 12.5 µM
RXF 393 renal
  GI50: 0.181 µM
  TGI: 0.392 µM
BT-549 breast
  GI50: 0.386 µM
  TGI: 1.22 µM
SF-268 CNS
  GI50: 0.18 µM
  TGI: 0.448 µM
SF-539 CNS
  GI50: 0.117 µM
  TGI: 0.403 µM
SN12C renal
  GI50: 0.153 µM
  TGI: 0.864 µM
MOLT-4 leukemia
  GI50: 0.269 µM
  TGI: 1.41 µM
MDA-MB-231 breast
  GI50: 0.114 µM
  TGI: 0.548 µM
HCC-2998 colon
  GI50: 0.334 µM
  TGI: 1.02 µM
SK-MEL-5 melanoma
  GI50: 0.775 µM
  TGI: 2.05 µM
TK-10 renal
  GI50: 0.226 µM
  TGI: 0.55 µM
HCT-116 colon
  GI50: 0.17 µM
  TGI: 0.889 µM
HCT-15 colon
  GI50: 0.287 µM
  TGI: 0.929 µM
LOX IMVI melanoma
  GI50: 0.146 µM
  TGI: 0.3 µM
M14 melanoma
  GI50: 0.139 µM
  TGI: 0.305 µM
HL-60(TB) leukemia
  GI50: 0.264 µM
  TGI: 0.873 µM
NCI-H460 lung
  GI50: 0.297 µM
  TGI: 0.851 µM
ACHN renal
  GI50: 0.295 µM
  TGI: 1.06 µM
KM12 colon
  TGI: 0.83 µM
T-47D breast
  GI50: 0.369 µM
  TGI: 1.91 µM
UO-31 renal
  GI50: 0.339 µM
  TGI: 1.06 µM
OVCAR-5 ovarian
  GI50: 0.295 µM
  TGI: 1.2 µM
EKVX NSCLC
  GI50: 0.257 µM
  TGI: 0.997 µM
HOP-92 NSCLC
  GI50: 0.0385 µM
  TGI: 0.225 µM
MCF7 breast
  GI50: 0.146 µM
  TGI: 0.897 µM
NCI-H23 lung
  GI50: 0.185 µM
  TGI: 0.478 µM
786-0 renal
  GI50: 0.323 µM
  TGI: 0.96 µM
OVCAR-4 ovarian
  GI50: 0.217 µM
  TGI: 1.04 µM
SW-620 colon
  GI50: 0.202 µM
  TGI: 0.585 µM
COLO 205 colon
  GI50: 0.178 µM
  TGI: 0.349 µM
MALME-3M melanoma
  GI50: 0.127 µM
  TGI: 0.37 µM
HT29 colon
  GI50: 0.203 µM
  TGI: 0.91 µM
NCI-H522 lung
  GI50: 0.179 µM
  TGI: 0.37 µM
UACC-62 melanoma
  GI50: 0.199 µM
  TGI: 0.843 µM
SR leukemia
  GI50: 0.249 µM
  TGI: 0.852 µM
HOP-62 NSCLC
  GI50: 0.23 µM
  TGI: 0.667 µM
OVCAR-8 ovarian
  GI50: 0.304 µM
  TGI: 1.05 µM
IGROV1 ovarian
  GI50: 0.167 µM
  TGI: 1.06 µM

## COc1ccc(/C=N/Nc2ccnc3cc(Cl)ccc23)cc1Cl
HS 578T breast
  GI50: 1.99 µM
  TGI: 4.28 µM
SNB-75 CNS
  GI50: 1.55 µM
  TGI: 3.06 µM
CAKI-1 renal
  GI50: 1.68 µM
  TGI: 3.1 µM
PC-3 prostate
  GI50: 1.64 µM
  TGI: 3.12 µM
A498 renal
  GI50: 1.72 µM
  TGI: 3.22 µM
SK-OV-3 ovarian
  GI50: 1.82 µM
  TGI: 3.27 µM
SNB-19 CNS
  GI50: 1.93 µM
  TGI: 3.73 µM
A549 NSCLC
  GI50: 1.77 µM
  TGI: 3.57 µM
UACC-257 melanoma
  GI50: 1.69 µM
  TGI: 3.29 µM
SK-MEL-28 melanoma
  GI50: 1.75 µM
  TGI: 3.21 µM
RPMI-8226 leukemia
  GI50: 2.2 µM
  TGI: 5.24 µM
MDA-MB-435
  GI50: 1.79 µM
  TGI: 3.39 µM
U251 CNS
  GI50: 1.74 µM
  TGI: 3.37 µM
SK-MEL-2 melanoma
  GI50: 1.79 µM
  TGI: 3.33 µM
SF-295 CNS
  GI50: 1.79 µM
  TGI: 3.36 µM
CCRF-CEM leukemia
  GI50: 2.14 µM
  TGI: 5.93 µM
RXF 393 renal
  GI50: 1.75 µM
  TGI: 3.21 µM
SF-268 CNS
  GI50: 1.9 µM
  TGI: 3.69 µM
SF-539 CNS
  GI50: 1.8 µM
  TGI: 3.26 µM
SN12C renal
  GI50: 1.75 µM
  TGI: 3.44 µM
MOLT-4 leukemia
  GI50: 2.2 µM
  TGI: 5.35 µM
MDA-MB-231 breast
  GI50: 1.93 µM
  TGI: 3.55 µM
SK-MEL-5 melanoma
  GI50: 1.77 µM
  TGI: 3.21 µM
TK-10 renal
  GI50: 1.74 µM
  TGI: 3.12 µM
HL-60(TB) leukemia
  GI50: 1.96 µM
  TGI: 4.79 µM
NCI-H460 lung
  GI50: 2.04 µM
  TGI: 4.03 µM
ACHN renal
  GI50: 1.95 µM
  TGI: 3.42 µM
KM12 colon
  GI50: 2.08 µM
  TGI: 4.32 µM
UO-31 renal
  GI50: 1.68 µM
  TGI: 3.1 µM
OVCAR-5 ovarian
  GI50: 1.85 µM
  TGI: 3.49 µM
HOP-92 NSCLC
  GI50: 1.38 µM
  TGI: 2.95 µM
OVCAR-4 ovarian
  GI50: 1.83 µM
  TGI: 3.56 µM
SW-620 colon
  GI50: 1.9 µM
  TGI: 3.76 µM
COLO 205 colon
  GI50: 1.82 µM
  TGI: 3.37 µM
MALME-3M melanoma
  GI50: 1.9 µM
  TGI: 3.54 µM
HT29 colon
  GI50: 1.53 µM
  TGI: 3.01 µM
NCI-H522 lung
  GI50: 1.69 µM
  TGI: 3.3 µM
UACC-62 melanoma
  GI50: 1.76 µM
  TGI: 3.27 µM
SR leukemia
  GI50: 0.707 µM
  TGI: 5.51 µM
IGROV1 ovarian
  GI50: 1.91 µM
  TGI: 3.71 µM
